Results from BindingDB's records for PubMed 9454810 (Sanofi Recherche, 1998).

Assays:
[1] = biological target: 5-hydroxytryptamine receptor 1B (Homo sapiens, UniProt P28222)
[2] = biological target: Muscarinic acetylcholine receptor M4 (Homo sapiens, UniProt P08173)
[3] = biological target: Histamine H3 receptor (Homo sapiens, UniProt Q9Y5N1)
[4] = biological target: Galanin peptides (Homo sapiens, UniProt P22466)
[5] = biological target: Adenosine receptor A1 (Homo sapiens, UniProt P30542)
[6] = biological target: Peripheral-type benzodiazepine receptor-associated protein 1 (Homo sapiens, UniProt O95153)
Peripheral-type benzodiazepine receptor-associated protein 1, sequence (O95153 whole entry): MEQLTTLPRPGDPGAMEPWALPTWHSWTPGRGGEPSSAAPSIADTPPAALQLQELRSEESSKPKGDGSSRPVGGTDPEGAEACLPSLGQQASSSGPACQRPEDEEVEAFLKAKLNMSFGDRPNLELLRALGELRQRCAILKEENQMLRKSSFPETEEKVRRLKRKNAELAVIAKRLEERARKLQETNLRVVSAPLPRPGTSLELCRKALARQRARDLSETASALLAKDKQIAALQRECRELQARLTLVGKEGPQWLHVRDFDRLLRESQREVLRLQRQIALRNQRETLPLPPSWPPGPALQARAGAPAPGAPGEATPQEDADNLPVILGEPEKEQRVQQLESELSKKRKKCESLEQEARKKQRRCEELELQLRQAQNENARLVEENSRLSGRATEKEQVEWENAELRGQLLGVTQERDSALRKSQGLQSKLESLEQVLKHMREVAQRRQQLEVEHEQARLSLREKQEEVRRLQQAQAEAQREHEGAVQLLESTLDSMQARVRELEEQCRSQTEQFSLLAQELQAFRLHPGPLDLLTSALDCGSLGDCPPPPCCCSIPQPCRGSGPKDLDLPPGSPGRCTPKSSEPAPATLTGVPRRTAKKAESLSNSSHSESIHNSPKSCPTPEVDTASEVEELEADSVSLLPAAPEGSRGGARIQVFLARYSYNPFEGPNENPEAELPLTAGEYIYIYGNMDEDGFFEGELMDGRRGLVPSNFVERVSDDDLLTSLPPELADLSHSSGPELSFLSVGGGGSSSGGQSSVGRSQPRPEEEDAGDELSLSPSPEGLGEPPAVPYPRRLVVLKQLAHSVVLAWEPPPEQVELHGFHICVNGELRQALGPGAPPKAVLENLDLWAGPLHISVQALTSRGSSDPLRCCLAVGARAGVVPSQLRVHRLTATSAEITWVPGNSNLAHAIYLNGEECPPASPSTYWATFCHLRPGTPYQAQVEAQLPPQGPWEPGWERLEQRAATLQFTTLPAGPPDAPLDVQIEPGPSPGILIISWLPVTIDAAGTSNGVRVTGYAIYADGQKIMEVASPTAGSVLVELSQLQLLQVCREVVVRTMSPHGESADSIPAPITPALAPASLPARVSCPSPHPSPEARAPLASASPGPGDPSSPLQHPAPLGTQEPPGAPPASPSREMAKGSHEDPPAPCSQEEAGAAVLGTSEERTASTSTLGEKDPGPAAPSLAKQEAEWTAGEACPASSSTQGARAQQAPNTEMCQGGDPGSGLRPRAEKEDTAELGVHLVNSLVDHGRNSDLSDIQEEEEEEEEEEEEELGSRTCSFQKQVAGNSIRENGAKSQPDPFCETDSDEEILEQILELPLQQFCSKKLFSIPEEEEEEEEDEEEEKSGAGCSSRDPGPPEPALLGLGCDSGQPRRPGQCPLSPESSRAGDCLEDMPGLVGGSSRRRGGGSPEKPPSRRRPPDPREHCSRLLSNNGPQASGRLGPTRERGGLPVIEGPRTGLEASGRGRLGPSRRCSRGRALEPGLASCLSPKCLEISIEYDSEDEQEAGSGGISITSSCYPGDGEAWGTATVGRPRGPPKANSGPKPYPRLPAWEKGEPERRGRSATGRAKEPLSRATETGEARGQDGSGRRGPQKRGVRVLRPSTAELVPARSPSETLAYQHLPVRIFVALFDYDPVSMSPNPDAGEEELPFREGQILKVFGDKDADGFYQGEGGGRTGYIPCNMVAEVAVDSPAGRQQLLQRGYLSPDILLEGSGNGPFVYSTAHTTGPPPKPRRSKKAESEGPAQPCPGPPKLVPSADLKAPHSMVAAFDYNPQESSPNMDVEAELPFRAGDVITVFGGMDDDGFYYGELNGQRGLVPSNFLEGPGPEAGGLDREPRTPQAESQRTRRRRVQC

[7] = biological target: Substance-P receptor (Homo sapiens, UniProt P25103)
Substance-P receptor, sequence (P25103 whole entry): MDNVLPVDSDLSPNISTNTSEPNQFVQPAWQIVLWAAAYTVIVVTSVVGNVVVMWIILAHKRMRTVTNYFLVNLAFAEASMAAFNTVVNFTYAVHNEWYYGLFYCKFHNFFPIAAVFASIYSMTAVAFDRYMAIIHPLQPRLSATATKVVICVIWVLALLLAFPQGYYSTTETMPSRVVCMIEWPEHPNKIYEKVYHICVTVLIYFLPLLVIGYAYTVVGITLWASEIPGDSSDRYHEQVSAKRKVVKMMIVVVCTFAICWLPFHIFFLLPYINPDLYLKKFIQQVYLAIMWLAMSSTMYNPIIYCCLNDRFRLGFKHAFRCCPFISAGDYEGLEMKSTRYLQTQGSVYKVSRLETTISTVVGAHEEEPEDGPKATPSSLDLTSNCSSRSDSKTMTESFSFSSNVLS

[8] = biological target: Endothelin receptor type B (Homo sapiens, UniProt P24530)
[9] = biological target: B2 bradykinin receptor (Homo sapiens, UniProt P30411)
[10] = biological target: D(1A) dopamine receptor (Homo sapiens, UniProt P21728)
[11] = biological target: Protein kinase C alpha type (Homo sapiens, UniProt P17252)
[12] = biological target: 5-hydroxytryptamine receptor 3A (Homo sapiens, UniProt P46098)
[13] = biological target: Histamine H2 receptor (Homo sapiens, UniProt P25021)
[14] = biological target: Gastrin/cholecystokinin type B receptor (Homo sapiens, UniProt P32239)
[15] = biological target: Type-1 angiotensin II receptor (Homo sapiens, UniProt P30556)
[16] = biological target: Pro-thyrotropin-releasing hormone (Homo sapiens, UniProt P20396)
[17] = biological target: Neuronal acetylcholine receptor subunit alpha-3 (Homo sapiens, UniProt P32297)
[18] = biological target: 5-hydroxytryptamine receptor 1D (Homo sapiens, UniProt P28221)
[19] = biological target: Neuropeptide Y receptor type 2 (Homo sapiens, UniProt P49146)
[20] = biological target: Neurotensin/neuromedin N (Human, UniProt P30990)
[21] = biological target: AP-4 complex subunit sigma-1 (Homo sapiens, UniProt Q9Y587)
[22] = biological target: P2X purinoceptor 1 (Homo sapiens, UniProt P51575)
P2X purinoceptor 1, sequence (P51575 whole entry): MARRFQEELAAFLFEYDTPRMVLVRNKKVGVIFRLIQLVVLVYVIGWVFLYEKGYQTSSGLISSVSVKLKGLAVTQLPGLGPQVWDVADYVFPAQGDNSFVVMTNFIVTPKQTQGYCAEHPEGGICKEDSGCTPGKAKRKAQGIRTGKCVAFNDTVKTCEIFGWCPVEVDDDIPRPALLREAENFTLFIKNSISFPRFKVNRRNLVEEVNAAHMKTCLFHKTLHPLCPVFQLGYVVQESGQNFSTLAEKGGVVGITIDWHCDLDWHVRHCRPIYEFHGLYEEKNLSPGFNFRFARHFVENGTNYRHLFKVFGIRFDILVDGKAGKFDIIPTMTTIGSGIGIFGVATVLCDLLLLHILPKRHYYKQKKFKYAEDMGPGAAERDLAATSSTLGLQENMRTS

[23] = biological target: Muscarinic acetylcholine receptor M1 (Homo sapiens, UniProt P11229)
[24] = biological target: Adenosine receptor A2a (Homo sapiens, UniProt P29274)
[25] = biological target: Potassium voltage-gated channel subfamily A member 1 (Homo sapiens, UniProt Q09470)
Potassium voltage-gated channel subfamily A member 1, sequence (Q09470 whole entry): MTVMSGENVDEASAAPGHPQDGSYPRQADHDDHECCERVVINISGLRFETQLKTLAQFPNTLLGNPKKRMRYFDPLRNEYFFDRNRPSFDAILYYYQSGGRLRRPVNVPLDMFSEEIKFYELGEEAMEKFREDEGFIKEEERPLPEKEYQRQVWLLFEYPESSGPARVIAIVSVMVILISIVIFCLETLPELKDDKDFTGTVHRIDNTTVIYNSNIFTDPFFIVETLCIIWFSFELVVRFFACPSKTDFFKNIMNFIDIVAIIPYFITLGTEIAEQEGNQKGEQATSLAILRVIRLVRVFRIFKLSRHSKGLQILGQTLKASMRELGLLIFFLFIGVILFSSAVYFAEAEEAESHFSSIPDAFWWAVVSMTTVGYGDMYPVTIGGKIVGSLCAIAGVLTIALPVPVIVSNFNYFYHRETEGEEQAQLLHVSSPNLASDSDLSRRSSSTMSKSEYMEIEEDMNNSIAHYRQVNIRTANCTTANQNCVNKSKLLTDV

[26] = biological target: Alpha-1A adrenergic receptor (Homo sapiens, UniProt P35348)
Alpha-1A adrenergic receptor, sequence (P35348 whole entry): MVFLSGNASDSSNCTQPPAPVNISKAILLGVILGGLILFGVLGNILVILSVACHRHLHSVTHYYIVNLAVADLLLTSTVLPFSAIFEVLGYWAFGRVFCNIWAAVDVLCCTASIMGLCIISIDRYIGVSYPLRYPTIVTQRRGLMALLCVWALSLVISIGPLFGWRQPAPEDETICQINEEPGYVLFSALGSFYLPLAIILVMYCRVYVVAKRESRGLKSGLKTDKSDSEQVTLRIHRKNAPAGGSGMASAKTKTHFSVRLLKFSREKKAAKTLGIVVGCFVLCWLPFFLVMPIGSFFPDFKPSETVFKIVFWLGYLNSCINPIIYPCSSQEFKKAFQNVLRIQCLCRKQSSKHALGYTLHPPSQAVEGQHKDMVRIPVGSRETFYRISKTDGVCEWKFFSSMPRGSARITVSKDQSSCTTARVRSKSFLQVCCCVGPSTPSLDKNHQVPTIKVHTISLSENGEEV

[27] = biological target: Leukotriene B4 receptor 2 (Homo sapiens, UniProt Q9NPC1)
[28] = biological target: Vasopressin V1b receptor (Homo sapiens, UniProt P47901)
[29] = biological target: Thromboxane A2 receptor (Homo sapiens, UniProt P21731)
[30] = biological target: Voltage-dependent N-type calcium channel subunit alpha-1B (Homo sapiens, UniProt Q00975)
[31] = biological target: Calcium-activated potassium channel subunit beta-1 (Homo sapiens, UniProt Q16558)
[32] = biological target: Muscarinic acetylcholine receptor M2 (Homo sapiens, UniProt P08172)
[33] = biological target: P2Y purinoceptor 1 (Homo sapiens, UniProt P47900)
P2Y purinoceptor 1, sequence (P47900 whole entry): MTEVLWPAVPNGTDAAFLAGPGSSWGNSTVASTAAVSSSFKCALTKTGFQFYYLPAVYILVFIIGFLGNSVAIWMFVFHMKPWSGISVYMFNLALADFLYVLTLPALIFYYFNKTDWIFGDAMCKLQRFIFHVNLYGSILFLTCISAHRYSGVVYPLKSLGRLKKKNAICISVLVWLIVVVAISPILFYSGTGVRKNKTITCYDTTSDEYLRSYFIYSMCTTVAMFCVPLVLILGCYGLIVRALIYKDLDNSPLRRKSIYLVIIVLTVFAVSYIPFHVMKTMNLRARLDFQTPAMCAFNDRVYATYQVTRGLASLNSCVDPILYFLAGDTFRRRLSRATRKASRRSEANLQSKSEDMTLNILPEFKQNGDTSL

[34] = biological target: Histamine H1 receptor (Homo sapiens, UniProt P35367)
[35] = biological target: Beta-2 adrenergic receptor (Homo sapiens, UniProt P07550)
[36] = biological target: Substance-K receptor (Homo sapiens, UniProt P21452)
[37] = biological target: VIP peptides (Homo sapiens, UniProt P01282)
VIP peptides, sequence (P01282 125-152 limits assumed): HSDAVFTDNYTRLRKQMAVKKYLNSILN

[38] = biological target: Gamma-aminobutyric acid receptor subunit alpha-1 (Homo sapiens, UniProt P14867)
[39] = biological target: Vasopressin V2 receptor (Homo sapiens, UniProt P30518)
[40] = biological target: 5-hydroxytryptamine receptor 2C (Homo sapiens, UniProt P28335)
5-hydroxytryptamine receptor 2C, sequence (P28335 whole entry): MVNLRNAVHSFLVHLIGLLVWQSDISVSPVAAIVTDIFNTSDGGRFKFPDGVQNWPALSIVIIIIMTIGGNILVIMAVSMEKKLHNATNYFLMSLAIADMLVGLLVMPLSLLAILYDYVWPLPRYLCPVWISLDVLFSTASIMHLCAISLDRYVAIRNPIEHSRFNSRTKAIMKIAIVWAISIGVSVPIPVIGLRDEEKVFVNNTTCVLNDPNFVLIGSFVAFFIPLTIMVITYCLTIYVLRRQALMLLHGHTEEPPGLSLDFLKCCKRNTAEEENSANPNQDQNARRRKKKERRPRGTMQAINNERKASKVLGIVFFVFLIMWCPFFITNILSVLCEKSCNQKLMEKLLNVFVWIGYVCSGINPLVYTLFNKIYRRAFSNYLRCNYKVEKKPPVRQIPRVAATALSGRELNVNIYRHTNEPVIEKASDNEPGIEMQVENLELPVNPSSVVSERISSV

Measured: Ki

Histamine H3 receptor, sequence (Q9Y5N1 whole entry): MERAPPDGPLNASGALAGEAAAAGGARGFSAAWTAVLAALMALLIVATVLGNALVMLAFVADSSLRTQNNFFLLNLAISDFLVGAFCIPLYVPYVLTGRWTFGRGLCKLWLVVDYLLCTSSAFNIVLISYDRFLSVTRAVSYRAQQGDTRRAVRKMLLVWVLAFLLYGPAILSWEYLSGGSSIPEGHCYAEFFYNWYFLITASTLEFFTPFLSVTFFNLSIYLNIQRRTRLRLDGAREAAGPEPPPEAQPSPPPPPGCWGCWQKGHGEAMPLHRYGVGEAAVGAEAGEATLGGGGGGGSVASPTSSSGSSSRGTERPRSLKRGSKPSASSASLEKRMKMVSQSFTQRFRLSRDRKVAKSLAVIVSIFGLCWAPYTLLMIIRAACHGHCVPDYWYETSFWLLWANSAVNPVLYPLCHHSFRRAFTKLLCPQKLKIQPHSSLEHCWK
Galanin peptides, sequence (P22466 33-62 limits assumed): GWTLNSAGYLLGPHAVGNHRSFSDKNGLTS

Cc1ccc(Cn2nc(C(=O)NC3C(C)(C)C4CC[C@@]3(C)C4)cc2-c2ccc(Cl)c(C)c2)cc1 (stereo not given in full) [N-(1,3,3-trimethylbicyclo(2.2.1)heptan-2-yl)-5-(4-chloro-3-methylphenyl)-1-(4-methylbenzyl)pyrazole-3-carboxamide]
> 10 µM: all assays above
